Results published in patent US7423172B2 (Laboratorios Salvat, S.A., priority 2004, dated 2008).

Experiments:
[1] = target: T1, GST-hPPARγ2 (Homo sapiens, UniProt P37231); test: PPARγ2 binding assay ([3H]BRL-49853 displacement); conditions: GST-hPPARγ2, [3H]BRL-49853 100 nM, 3 h at 4° C.; read-out: Affinity PPARγ
T1 construct: the complete cDNA of the human PPAR was cloned into pGEX4T2; made in house; host or cells: Escherichia coli BL21 (DE3)
T1 sequence (P37231 1-505): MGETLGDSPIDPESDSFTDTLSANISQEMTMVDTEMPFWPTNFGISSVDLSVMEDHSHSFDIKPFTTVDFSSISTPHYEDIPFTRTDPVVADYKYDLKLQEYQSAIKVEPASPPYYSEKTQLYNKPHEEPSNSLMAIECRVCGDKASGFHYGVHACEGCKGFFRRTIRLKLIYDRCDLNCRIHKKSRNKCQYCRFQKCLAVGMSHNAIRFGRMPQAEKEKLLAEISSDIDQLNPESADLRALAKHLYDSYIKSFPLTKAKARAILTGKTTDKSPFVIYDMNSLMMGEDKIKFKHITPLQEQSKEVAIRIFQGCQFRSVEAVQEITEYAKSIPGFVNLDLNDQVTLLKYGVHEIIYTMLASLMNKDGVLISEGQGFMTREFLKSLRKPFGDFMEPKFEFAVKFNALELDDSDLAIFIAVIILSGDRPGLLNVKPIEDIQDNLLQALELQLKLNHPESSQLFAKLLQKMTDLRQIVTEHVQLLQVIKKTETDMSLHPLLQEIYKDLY
Procedure: The cDNA encoding for the open reading frame of the hPPARγ2 was amplified by PCR (polymerase chain reaction) and inserted in the plasmid pGEX-4T-2. This construction (pGEX-hPPARγ) was introduced into E. coli where it was overexpressed and semipurified as a fusion protein with glutathione S-transferase (GST) (Elbrecht et al., J. Biol. Chem. 1999, 274, 7913-7922). The binding of the compounds to the GST-hPPARγ2 s was determined by modifications in the method described by Lehmann et al. (J. Biol. Chem. 1995, 270, 12953-12957). The receptors (2.5 μg) were incubated in 96-well plates in the presence or in the absence of the products with [^3H]BRL-49853 (100 nM) for 3 h at 4° C., in a final volume of 200 μL of buffer Tris-HCl 10 mM pH:8.0, containing KCl 50 mM and DTT 10 mM. Non-specific binding was determined in the presence of BRL49853 100 μM. The reaction mixture was transferred to a Multiscreen Durapore (Millipore) microplate containing glutathione-Sepharose 4B in every well. The reaction mixture was left to incubate with the resin during 10 min, and then centrifuged at 735 g during 2 min. To dissociate the receptor bound to the resin, reduced glutathione 10 mM is added and incubated during 10 min. The receptor was eluted by centrifugation. Then, scintillation liquid was added to the elution and the contained radioactivity was quantified by liquid scintillation spectroscopy (Microbeta Wallac, Perkin Elmer).
The human PPAR cDNA was amplified through RT-PCR. For hPPARγ2, RNA was obtained from human white adipose tissue. Each amplified fragment was cloned into pBluescript (Stratagene®) and sequenced. One clone for each construction was selected and used as template for further subcloning and PCR amplifications.
GST-Fused Protein Construction
To generate this chimeric protein, the complete cDNA of the human PPAR was cloned into pGEX4T2 (Amersham Biosciences). The fragment was obtained from the pBluescript-cDNAs clones digested with endonucleases. To assess the plasmid identity and to ensure the in-phase cloning of the proteins, pGEX construction was sequenced. GST-hPPARγ2 fusion protein was generated in Escherichia coli (BL21 strain DE3). Cells were cultured in LB medium to a density of A600=1.6 odu, and induced for overexpression by addition of isopropyl-1-thio-β-D-galactopyranoside (IPTG)-induced cultures to a final concentration of 0.5 mM. The IPTG-induced cultures were grown at room temperature o/n, before cells were harvested by centrifugation at 5000 g for 15 min. After sonication, the GST-fusion protein was purified from the cell pellet using glutathione-Sepharose beads, following the procedure recommended by the manufacturer (Amersham Pharmacia Biotech). Excess of gluthatione was removed o/n by dyalisis at 4° C. Receptor purity was visualized by SDS-PAGE and protein content was determined by Bradford method. Receptor aliquots were stored at −80° C. until use.

[2] = target: T2, GAL4 DNA binding domain fused to the PPARγ LBD (Homo sapiens, UniProt P37231); test: LBD-hPPARs transactivation assay (GAL4-luciferase reporter in COS-7 cells); type: cell-based; conditions: 48 h
T2 construct: expressed in transfected cells; host or cells: COS-7
T2 sequence (P37231 238-503 limits assumed): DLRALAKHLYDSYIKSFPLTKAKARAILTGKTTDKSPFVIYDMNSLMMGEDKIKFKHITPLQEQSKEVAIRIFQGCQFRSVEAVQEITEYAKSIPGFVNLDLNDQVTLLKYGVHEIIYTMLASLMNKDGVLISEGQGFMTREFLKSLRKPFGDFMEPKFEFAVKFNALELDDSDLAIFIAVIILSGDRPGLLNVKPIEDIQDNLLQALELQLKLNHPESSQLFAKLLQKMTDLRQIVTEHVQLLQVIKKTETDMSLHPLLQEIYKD
From the text: LBD-hPPARs Transactivation Assay
COS-7 cells were cultivated in 24-well plates and transfected with the pFACMV plasmids that encode the chimeric proteins containing the GAL4 DNA binding domain fused to the PPARγ LBD. The reporter plasmid for the foregoing constructions was pFR-Luc, which contains five repetitions of the GAL4-response element in front of a promoter that controls the transcription of the luciferase gene. Lipofectamine was used as a transfection agent. The plasmids of the chimeric receptors and the reporter gene were inserted in the cells by transitory transfection in COS-7 cells in culture.

SMILES: O=C(c1ccccc1)c1ccccc1N[C@@H](Cc1ccc(OCCCN(Cc2ccccc2)C(=O)C#Cc2ccccc2)cc1)C(=O)O [I_178, (S)-2-(2-Benzoylphenylamino)-3-(4-{3-[benzyl-(3-phenylpropynoyl)amino]-propoxy}phenyl)propionic acid]
- Ki [1]: < 500 nM

SMILES: O=C(c1ccccc1)c1ccccc1N[C@@H](Cc1ccc(OCCN(Cc2cccs2)c2ccccc2)cc1)C(=O)O [I_467, (S)-2-(2-Benzoylphenylamino)-3-{4-[2-(phenylthiophen-2-ylmethylamino)-ethoxy]phenyl}propionic acid]
- Ki [1]: < 500 nM

SMILES: O=C(c1ccccc1)c1ccccc1N[C@@H](Cc1ccc(OCCCN(Cc2ccccc2)C(=O)Cc2cccnc2)cc1)C(=O)O [I_198, (S)-2-(2-Benzoylphenylamino)-3-(4-{3-[benzyl-(2-pyridin-3-ylacetyl)-amino]propoxy}phenyl)propionic acid]
- Ki [1]: 500 to 1500 nM
- Functional activity PPARγ [2]: PARTIAL AGONIST

SMILES: COCCC(=O)N(CCOc1ccc(C[C@H](Nc2ccccc2C(=O)c2ccccc2)C(=O)O)cc1)Cc1ccccc1 [I_469, (S)-2-(2-Benzoylphenylamino)-3-(4-{2-[benzyl-(3-methoxypropionyl)-amino]ethoxy}phenyl)propionic acid]
- Ki [1]: 500 to 1500 nM

SMILES: COc1cccc(CN(CCCOc2ccc(C[C@H](Nc3ccccc3C(=O)c3ccccc3)C(=O)O)cc2)c2ccccc2)c1 [I_391, (S)-2-(2-Benzoylphenylamino)-3-(4-{3-[(3-methoxybenzyl)phenylamino]-propoxy}phenyl)propionic acid]
- Ki [1]: 500 to 1500 nM

SMILES: O=C(c1ccccc1)c1ccccc1N[C@@H](Cc1ccc(OCCN(C(=O)c2cc3ccccc3cn2)c2ccccc2)cc1)C(=O)O [I_303, (S)-2-(2-Benzoylphenylamino)-3-(4-{2-[(isoquinoline-3-carbonyl)-phenylamino]ethoxy}phenyl)propionic acid]
- Ki [1]: < 500 nM

SMILES: Cc1ccccc1N(CCOc1ccc(C[C@H](Nc2ccccc2C(=O)c2ccccc2)C(=O)O)cc1)CC1CCC1 [I_412, (S)-2-(2-Benzoylphenylamino)-3-{4-[2-(cyclobutylmethyl-o-tolylamino)-ethoxy]phenyl}propionic acid]
- Ki [1]: < 500 nM

SMILES: Cc1cccc(N(CCCOc2ccc(C[C@H](Nc3ccccc3C(=O)c3ccccc3)C(=O)O)cc2)CC(C)C)c1 [I_410, (S)-2-(2-Benzoylphenylamino)-3-(4-{3-[isobutyl-m-tolylamino]propoxy}-phenyl)propionic acid]
- Ki [1]: < 500 nM
- Functional activity PPARγ [2]: ANTAGONIST

SMILES: O=C(c1ccccc1)c1ccccc1N[C@@H](Cc1ccc(OCCCN(CC2CC2)C(=O)C2CCCC2)cc1)C(=O)O [I_280, (S)-2-(2-Benzoylphenylamino)-3-{4-[3-(cyclopentanecarbonylcyclopropylmethylamino)propoxy]phenyl}propionic acid]
- Ki [1]: < 500 nM

SMILES: Cc1ccc(N(CCOc2ccc(C[C@H](Nc3ccccc3C(=O)c3ccccc3)C(=O)O)cc2)C(=O)C(C)C)cc1 [I_149, (S)-2-(2-Benzoylphenylamino)-3-{4-[2-(isobutyryl-p-tolylamino)ethoxy]-phenyl}propionic acid]
- Ki [1]: > 1500 nM

SMILES: CCC(=O)N(CCOc1ccc(C[C@H](Nc2ccccc2C(=O)c2ccccc2)C(=O)O)cc1)c1ccc(Cl)cc1 [I_121]
- Ki [1]: 500 to 1500 nM
- Functional activity PPARγ [2]: ANTAGONIST

SMILES: O=C(c1ccccc1)c1ccccc1N[C@@H](Cc1ccc(OCCN(CC2CC2)C(=O)C=Cc2cccs2)cc1)C(=O)O [I_265, (S)-2-(2-Benzoylphenylamino)-3-(4-{2-[cyclopropylmethyl-(3-thiophen-2-ylacryloyl)amino]ethoxy}phenyl)-propionic acid]
- Ki [1]: < 500 nM
- Functional activity PPARγ [2]: AGONIST

SMILES: CC(=O)N(CCOc1ccc(C[C@H](Nc2ccccc2C(=O)c2ccccc2)C(=O)O)cc1)c1ccc2ccccc2c1 [I_438, (S)-3-{4-[2-(Acetylnaphthalen-2-ylamino)ethoxy]phenyl}-2-(2-benzoylphenylamino)propionic acid]
- Ki [1]: 500 to 1500 nM

SMILES: O=C(c1ccccc1)c1ccccc1N[C@@H](Cc1ccc(OCCCN(CC2CC2)C(=O)Cc2ccccc2)cc1)C(=O)O [I_262, (S)-2-(2-Benzoylphenylamino)-3-{4-[3-(cyclopropylmethylphenylacetylamino)propoxy]phenyl}propionic acid]
- Ki [1]: < 500 nM
- Functional activity PPARγ [2]: AGONIST

SMILES: C=CC(=O)N(CCCOc1ccc(C[C@H](Nc2ccccc2C(=O)c2ccccc2)C(=O)O)cc1)c1ccc(Cl)cc1 [I_128, (S)-3-(4-{3-[Acryloyl-(4-chlorophenyl)-amino]propoxy}phenyl)-2-(2-benzoylphenylamino)propionic acid]
- Ki [1]: 500 to 1500 nM

SMILES: O=C(c1ccccc1)c1ccccc1N[C@@H](Cc1ccc(OCCN(Cc2ccccc2F)c2ccccc2Cl)cc1)C(=O)O [I_379, (S)-2-(2-Benzoylphenylamino)-3-(4-{2-[(2-chlorophenyl)-(2-fluorobenzyl)-amino]ethoxy}phenyl)propionic acid]
- Ki [1]: 500 to 1500 nM

SMILES: CC(C)(C)N(CCOc1ccc(C[C@H](Nc2ccccc2C(=O)c2ccccc2)C(=O)O)cc1)C(=O)C1CCC1 [I_375, (S)-2-(2-Benzoylphenylamino)-3-{4-[2-(tert-butylcyclobutanecarbonylamino)-ethoxy]phenyl}propionic acid]
- Ki [1]: < 500 nM
- Functional activity PPARγ [2]: PARTIAL AGONIST

SMILES: O=C(c1ccccc1)c1ccccc1N[C@@H](Cc1ccc(OCCCN(Cc2ccccc2)CC2CC2)cc1)C(=O)O [I_418, (S)-2-(2-Benzoylphenylamino)-3-{4-[3-(benzylcyclopropylmethylamino)-propoxy]phenyl}propionic acid]
- Ki [1]: 500 to 1500 nM
- Functional activity PPARγ [2]: PARTIAL AGONIST

SMILES: C/C=C/C(=O)N(CCOc1ccc(C[C@H](Nc2ccccc2C(=O)c2ccccc2)C(=O)O)cc1)c1cccc(SC)c1 [I_440, (S)-2-(2-Benzoylphenylamino)-3-(4-{2-[but-2-(E)-enoyl-(3-methylsulfanylphenyl)amino]ethoxy}-phenyl)propionic acid]
- Ki [1]: 500 to 1500 nM
